Data: patent US20260256780A1, “COMPOSITIONS FOR INDUCING RAS GTP HYDROLYSIS AND USES THEREOF” (Revolution Medicines, Inc., priority 2023, published 2026)

Experiments:
KRAS^WT-RAF1 RBD complex = biological target: T1, KRAS^WT-RAF1 RBD complex (Homo sapiens, UniProt P01116); experiment: Intracellular RAS-RAF complex reporter assay (nanoBRET) in U2OS cells, KRAS^WT; type: cell-based; details: 4 hours
T1 construct: expressed in transfected cells; host or cells: U2OS
Experimental: A cellular assay was used to measure complexes between KRAS proteins and the RAS-binding domain (RBD) of the RAF1 kinase by nanoluciferase bioluminescence energy transfer (nanoBRET™) U2OS cells were seeded at confluence in the 3 mL of DMEM supplemented with 10% fetal bovine serum and 1% penicillin/streptomycin (approximately 1 million cells per well). […] The following day, Vivazine™ nanoluciferase substrate and compounds were added at the indicated concentration. After 4 hours of incubation, the emitted light at 460 and 618 nm was measured using a PerkinElmer Envision plate reader. The luminescence intensity at 618 nm relative to 460 nm is proportional to the number of complexes between the KRAS protein and the RBD of RAF1, a surrogate measure of the levels of active KRAS.

[1] = tested on: complexes between KRAS proteins and the RAS-binding domain (RBD) of the RAF1 kinase; experiment: Intracellular RAS-RAF complex reporter assay (nanoBRET) in U2OS cells, multiple KRAS variants; type: cell-based; details: 4 hours
Experimental: A cellular assay was used to measure complexes between KRAS proteins and the RAS-binding domain (RBD) of the RAF1 kinase by nanoluciferase bioluminescence energy transfer (nanoBRET™) U2OS cells were seeded at confluence in the 3 mL of DMEM supplemented with 10% fetal bovine serum and 1% penicillin/streptomycin (approximately 1 million cells per well). The following day, each well was transfected with 50 ng of a plasmid encoding N-terminal nanoluciferase-tagged KRAS4B and 2950 ng of a plasmid encoding a C-terminal HaloTag® RAF1 RBD (residues 51-149) using FuGENE HD reagent according to manufacturer instructions. The following day, each transfected cell pool was transferred to 36 wells of a white 96-well plate in media consistiting of OptiMem phenol-red free supplemented with 4% fetal bovine serum, 1% penicillin/streptomycin, and 100 nM of HaloTag® NanoBRET™ 618 Ligand. The following day, Vivazine™ nanoluciferase substrate and compounds were added at the indicated concentration. After 4 hours of incubation, the emitted light at 460 and 618 nm was measured using a PerkinElmer Envision plate reader. The luminescence intensity at 618 nm relative to 460 nm is proportional to the number of complexes between the KRAS protein and the RBD of RAF1, a surrogate measure of the levels of active KRAS.

[2] = biological target: T2, GTP-loaded KRAS proteins (residue 1-169 of KRAS4B) (Homo sapiens, UniProt P01116, G12V); experiment: RAS GTP hydrolysis rate assay (GTPase-Glo) with cyclophilin A; type: biochemical; details: bound in tri-complex with cyclophilin A; in some embodiments KRAS^G12V is the isoform used
T2 construct: recombinant KRAS proteins (residue 1-169 of KRAS4B); His6 (TEV protease-cleavable) (cleaved yes); made in house; host or cells: E. coli
Experimental: (§1) The rate of RAS GTP hydrolysis was assayed in the presence of various KRAS mutations. To assess GTP hydrolysis activity, recombinant KRAS proteins (residue 1-169 of KRAS4B) were expressed in E. coli and purified using a TEV protease-cleavable His6-tag and Ni^2+ affinity chromatography. The His6 tag was removed by treatment with TEV protease, and the KRAS protein was isolated by passing through a second Ni^2+ column followed by size exclusion chromatography. The purified KRAS proteins were loaded with GTP by incubation for 2 hours on ice with 2 mM GTP and 10 mM Ethylenediaminetetraacetic Acid, followed by addition of 10 mM MgCl2 and incubation on ice for 1 additional hour. The excess GTP was removed by overnight dialysis against buffer (12.5 mM HEPES, 75 mM NaCl, pH 7.5) at 4° C. The GTP-loaded KRAS protein were flash frozen in liquid nitrogen, then stored at −80° C. until use.
(§2) GTP-loaded KRAS proteins (1 μM) were combined with 25 μM of recombinant human cyclophilin A and 10 μM of compound in reaction buffer (12.5 mM HEPES, 75 mM NaCl, 1 mM MgCl2, 1 mM DTT, 1% DMSO, pH 7.5) pre-warmed to 37° C. At fixed time points, aliquots were removed and quenched by heating to 80° C. to denature the proteins, then centrifuged to pellet the protein precipitate. The supernatant was assessed for GTP levels using Promega GTPase-Glo™ according to manufacturer instructions. The levels of GTP as a function of incubation time were fit to a single phase exponential decay to determine the rate constant for hydrolysis activity.

[3] = tested on: GTP-loaded KRAS proteins (residue 1-169 of KRAS4B); experiment: as above; type: biochemical; details: all RAS mutants except those with mutations of the Q61 residue; 10 μM compound, 25 μM cyclophilin A, 37° C.
Experimental: as §1, §2

Question: Which results are given for `CCn1c(-c2cc(N3CCN(C4CC4)CC3)cnc2[C@H](C)OC)c2c3cc(ccc31)-c1csc(n1)C[C@H](NC(=O)[C@H]1[C@@H]3COC[C@@H]31)C(=O)N1CCC[C@H](N1)C(=O)OCC(C)(C)C2` (atropisomer, axis not shown) [compound 8]?
Answer: potency for inhibition of RAS-RAF complexes vs KRAS^WT, relative to the other KRAS variants (KRAS^WT-RAF1 RBD complex): modestly lower potency; potency for inhibition of RAS-RAF complexes across multiple KRAS variants [1]: roughly similar potency; hydrolyzer class: RAS(ON) GTP hydrolysis rate relative to the intrinsic hydrolysis rate [2]: 8 (Compound E) Moderate; RAS GTP hydrolysis in various RAS mutants in the presence of compound [3]: increased hydrolysis
